The values that follow come from PMC8911550, “The Effects of Side-Chain Configurations of a Retro–Inverso-Type Inhibitor on the Human T-Cell Leukemia Virus (HTLV)-1 Protease” (Molecules, 2022).

Numbered stars: 1 amine (or outer) side, 2 acyl side, 3 side chain; on linkers, the order of the positions; unused ones are H or OH. Square brackets hold non-standard residues; d marks the D form. Ends that are not written are not given here. Peptide text beside a SMILES is read from it. X1 = CC(C)C[C@H](C(=O)[*:2])[C@H](O)C[C@H]1CCCN1[*:1]; d(aIle) = CC[C@H](C)[C@@H](N)C(=O)O; aIle = CC[C@@H](C)[C@H](N)C(=O)O

One assay deals with HTLV-1 protease. Conditions: ref [20]; cited from earlier work.
In assay [1] the target is T1, recombinant HTLV-1 protease (1-116, L40I) (Human T-cell leukemia virus 1, UniProt P10274, L489I).
T1 construct: examined using the recombinant HTLV-1 protease (1-116, L40I) and a substrate dodecapeptide; made in house; host or cells: E. coli BL21(DE3)
The assay can be described thus: biochemical. The conditions noted are these: for inhibitory activity relative to RI-inhibitor 3: effect of D-allo-Ile replacement, RI-inhibitor 3 as reference, recombinant protease. It counts as biochemical, human T-cell leukemia virus type 1 (HTLV-1). The method, then: The reaction mixture was directly analyzed by analytical HPLC with a C18 reversed-phase column. Each IC50 value of the RI-type inhibitor was obtained from the sigmoidal dose–response curve (Figure S6) calculated from the decrease in substrate concentration.
The reaction mixture was analyzed on a Cosmosil 5C18-ARII column (4.6 × 150 mm), employing a linear gradient of CH3CN (10–40%, 30 min) in aqueous 0.1% TFA. Each IC50 value was obtained from a sigmoidal dose–response curve obtained from the decrease in the substrate in the reaction mixture (Figure S3). Each experiment was repeated three times.

Assay [2] concerns recombinant HTLV-1 protease. The assay can be described thus: Cleavage of allo-Ile-containing substrates by recombinant HTLV-1 protease, analytical HPLC. In kind it is biochemical, human T-cell leukemia virus type 1 (HTLV-1). The conditions noted are these: decrease in substrate by analytical HPLC, Figure 3. The method, then: Each synthesized substrate (4–6) was then treated with the recombinant HTLV-1 protease, and the decrease in each substrate level was monitored using analytical HPLC [15].
Figure 3 Cleavage reaction of the substrates containing allo-Ile residues by the HTLV-1 protease: blue, original substrate; orange, substrate 4; gray, substrate 5; yellow, substrate 6.

T1 sequence (P10274 450-565 L489I): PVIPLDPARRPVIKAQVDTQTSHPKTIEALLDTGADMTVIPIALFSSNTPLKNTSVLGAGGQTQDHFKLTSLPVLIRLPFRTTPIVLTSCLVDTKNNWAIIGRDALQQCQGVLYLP

For the compound `C[C@@H](NC(=O)[C@H]1N(C(=O)[C@@H](O)[C@H](Cc2ccccc2)NC(=O)[C@@H](NC(=O)[C@@H](NC(=O)CN2CCOCC2)c2ccccc2)C(C)(C)C)CSC1(C)C)C(C)(C)C` [KNI-10729], the inhibition (usually the relative decrease from the control value, in per cent) at 50 nM with HTLV-1 protease is 79%.
Consider `CC[C@@H](C)[C@@H](NC(=O)[C@@H](CC(C)C)[C@H](O)C[C@H]1CCCN1C(=O)[C@H](NC(C)=O)[C@H](C)CC)C(=O)N[C@@H](C(=O)N1CCC[C@@H]1C(=O)N1CCC[C@@H]1C(N)=O)C(C)C` [RI-inhibitor 3] (Ac-[dI][X1][dI][dV][dP][dP]-NH2), for which the 50% inhibitory concentration (IC50) – broadly, the point on the concentration scale where inhibition reaches its midpoint – in assay [1] came out at 240 µM.
For `CC[C@@H](C)[C@@H](NC(=O)[C@@H](CC(C)C)[C@H](O)C[C@H]1CCCN1C(=O)[C@H](NC(C)=O)[C@@H](C)CC)C(=O)N[C@@H](C(=O)N1CCC[C@@H]1C(=O)N1CCC[C@@H]1C(N)=O)C(C)C` [RI-inhibitor 8] (Ac-[d(aIle)][X1][dI][dV][dP][dP]-NH2), in assay [1], the half-inhibitory concentration (IC50) is 110 µM and the “inhibitory activity relative to RI-inhibitor 3” value is “doubled the inhibitory activity”.
On the same counts, the results for `CC[C@@H](C)[C@@H](NC(C)=O)C(=O)N1CCC[C@@H]1C[C@@H](O)[C@H](CC(C)C)C(=O)N[C@@H](C(=O)N[C@@H](C(=O)N1CCC[C@@H]1C(=O)N1CCC[C@@H]1C(N)=O)C(C)C)[C@@H](C)CC` [RI-inhibitor 9] (Ac-[dI][X1][d(aIle)][dV][dP][dP]-NH2) are 130 µM and “doubled the inhibitory activity”.
On the same counts, the results for `CC[C@H](C)[C@@H](NC(=O)[C@@H](CC(C)C)[C@H](O)C[C@H]1CCCN1C(=O)[C@H](NC(C)=O)[C@@H](C)CC)C(=O)N[C@@H](C(=O)N1CCC[C@@H]1C(=O)N1CCC[C@@H]1C(N)=O)C(C)C` [RI-inhibitor 10] (Ac-[d(aIle)][X1][d(aIle)][dV][dP][dP]-NH2) are 85 µM and “tripled the inhibitory activity”.
“substrate 4: substrate 4 containing an allo-Ile residue at the prime site (9-allo-Ile) (KGPPVILP[aIle]QAP-NH2; N-terminus assumed; SMILES CC[C@@H](C)[C@H](NC(=O)[C@@H]1CCCN1C(=O)[C@H](CC(C)C)NC(=O)[C@@H](NC(=O)[C@@H](NC(=O)[C@@H]1CCCN1C(=O)[C@@H]1CCCN1C(=O)CNC(=O)[C@@H](N)CCCCN)C(C)C)[C@@H](C)CC)C(=O)N[C@@H](CCC(N)=O)C(=O)N[C@@H](C)C(=O)N1CCC[C@H]1C(N)=O)”: the “cleavage rate compared with original substrate, in words” value in assay [2] is given as “cleaved at a slightly lower rate than the original substrate”.
On the same count and under the same terms, next, “substrate 5: substrate 5 containing an allo-Ile residue at the non-prime site (6-allo-Ile) (KGPPV[aIle]LPIQAP-NH2; N-terminus assumed; SMILES CC[C@@H](C)[C@H](NC(=O)[C@@H](NC(=O)[C@@H]1CCCN1C(=O)[C@@H]1CCCN1C(=O)CNC(=O)[C@@H](N)CCCCN)C(C)C)C(=O)N[C@@H](CC(C)C)C(=O)N1CCC[C@H]1C(=O)N[C@H](C(=O)N[C@@H](CCC(N)=O)C(=O)N[C@@H](C)C(=O)N1CCC[C@H]1C(N)=O)[C@@H](C)CC)”: “clearly showed a lower cleavage rate than the original substrate”.
For the compound “substrate 6: substrate 6 containing two allo-Ile residues at both sites (6,9-allo-Ile) (KGPPV[aIle]LP[aIle]QAP-NH2; N-terminus assumed; SMILES CC[C@@H](C)[C@H](NC(=O)[C@@H](NC(=O)[C@@H]1CCCN1C(=O)[C@@H]1CCCN1C(=O)CNC(=O)[C@@H](N)CCCCN)C(C)C)C(=O)N[C@@H](CC(C)C)C(=O)N1CCC[C@H]1C(=O)N[C@H](C(=O)N[C@@H](CCC(N)=O)C(=O)N[C@@H](C)C(=O)N1CCC[C@H]1C(N)=O)[C@H](C)CC)”, the “cleavage rate compared with original substrate, in words” value in assay [2] is reported as “clearly showed a lower cleavage rate than the original substrate”.
